Data on 8 compounds can be found in ChEMBL document CHEMBL1201862, “PubChem BioAssay data set” (2004).

Calls of active or inactive are those of the source. Some results are limits rather than exact numbers.

One assay concerns Streptococcus. Kind of assay: Group A Streptococcus viability loss, dose response, counter-screen for streptokinase expression inhibitor project, luminescence, BacTiterGlo (AID 1915).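 Also: potency for reduction of bacterial viability or growth.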 Type of assay: functional, organism-based.
Assay [1] in a line: M. tuberculosis growth inhibition, HTS (AID 449762). Type of assay: functional.
In assay [2] the test system is Streptococcus sp. 'group A'. Kind of assay: growth inhibition of control SK(-) GAS strain, dose response, counter-screen for streptokinase expression inhibitor project, luminescence, kanamycin, BacTiterGlo, confirmation (AID 1900). It is filed as functional, organism-based. In general terms: The purpose of a counterscreen is to sort out artefacts and off-target activity.

A short description of assay [3]: T. cruzi intracellular amastigote growth inhibition, dose response, imaging, CA-I/72 strain, bovine embryo skeletal muscle, dry powder (AID 651885). It is filed as functional, cell-based.
Assay [4] in a line: inhibitors of Vif binding to APOBEC3G peptide, primary screen, biochemical, TR-FRET, GST-Vif 1-94, biotin-A3G peptide, dose response retest (AID 1117319).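 Also: TR-FRET signal of purified GST-Vif binding a biotinylated A3G peptide; inhibitors lower the FRET signal by blocking Vif and A3G binding.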 Type of assay: functional. (Time-resolved FRET reads energy transfer from a long-lived donor to a nearby acceptor.)
The target in the next assay is Kallikrein-7 (Homo sapiens, UniProt P49862). Briefly: Fluorescence Intensity-based biochemical primary high throughput dose response assay to identify activators of kallikrein-7 (K7) zymogen.
Kallikrein-7, sequence (P49862 whole entry, the tested form may be a part): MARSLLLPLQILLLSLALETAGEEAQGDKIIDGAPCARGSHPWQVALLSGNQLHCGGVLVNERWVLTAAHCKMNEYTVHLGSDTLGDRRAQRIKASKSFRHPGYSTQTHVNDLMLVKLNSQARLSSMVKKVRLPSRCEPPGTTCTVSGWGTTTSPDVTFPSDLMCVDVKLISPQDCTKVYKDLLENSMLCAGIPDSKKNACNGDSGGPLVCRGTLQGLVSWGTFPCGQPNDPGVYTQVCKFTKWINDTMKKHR
Assay [5] can be described thus: ZM109 Env clade C HIV-1 fusion inhibitors, dose response, HeLa effector, CEM target cells, luciferase, cherry-pick (AID 652058). Type of assay: functional, cell-based.
Assay [6] can be described thus: inhibitors of HIV Env-driven cell fusion, dose response, cherry-pick (AID 652057). Type of assay: functional, cell-based.
Assay [7] is described as follows: inhibitors of clade B AD8 Env fusion, dose response, cell-based, cherry-pick (AID 652062).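 Also: luciferase signal from cell-cell fusion driven by HIV-1 clade B AD8 Env; potency is for inhibitors of fusion seen as a drop in luminescence.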 It is filed as functional.
Assay [8] is described as follows: off-target signal loss in HeLa-CEM21 co-culture – HeLa F-luc CTL cells, cherry-picked, counter-screen for HIV-1 Env fusion inhibitor project, dose response (AID 652040).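 Also: potency for signal decrease marking cytotoxic or nonspecific inhibition.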 Type of assay: functional, cell-based.
In another assay the target is Ephrin type-A receptor 4 (Mus musculus, UniProt Q03137). Briefly: inhibitors of EphA4 binding to KYL peptide, primary screen, biochemical, colorimetric, mouse EphA4 (AID 689). It is filed as functional.
Ephrin type-A receptor 4, sequence (Q03137 whole entry): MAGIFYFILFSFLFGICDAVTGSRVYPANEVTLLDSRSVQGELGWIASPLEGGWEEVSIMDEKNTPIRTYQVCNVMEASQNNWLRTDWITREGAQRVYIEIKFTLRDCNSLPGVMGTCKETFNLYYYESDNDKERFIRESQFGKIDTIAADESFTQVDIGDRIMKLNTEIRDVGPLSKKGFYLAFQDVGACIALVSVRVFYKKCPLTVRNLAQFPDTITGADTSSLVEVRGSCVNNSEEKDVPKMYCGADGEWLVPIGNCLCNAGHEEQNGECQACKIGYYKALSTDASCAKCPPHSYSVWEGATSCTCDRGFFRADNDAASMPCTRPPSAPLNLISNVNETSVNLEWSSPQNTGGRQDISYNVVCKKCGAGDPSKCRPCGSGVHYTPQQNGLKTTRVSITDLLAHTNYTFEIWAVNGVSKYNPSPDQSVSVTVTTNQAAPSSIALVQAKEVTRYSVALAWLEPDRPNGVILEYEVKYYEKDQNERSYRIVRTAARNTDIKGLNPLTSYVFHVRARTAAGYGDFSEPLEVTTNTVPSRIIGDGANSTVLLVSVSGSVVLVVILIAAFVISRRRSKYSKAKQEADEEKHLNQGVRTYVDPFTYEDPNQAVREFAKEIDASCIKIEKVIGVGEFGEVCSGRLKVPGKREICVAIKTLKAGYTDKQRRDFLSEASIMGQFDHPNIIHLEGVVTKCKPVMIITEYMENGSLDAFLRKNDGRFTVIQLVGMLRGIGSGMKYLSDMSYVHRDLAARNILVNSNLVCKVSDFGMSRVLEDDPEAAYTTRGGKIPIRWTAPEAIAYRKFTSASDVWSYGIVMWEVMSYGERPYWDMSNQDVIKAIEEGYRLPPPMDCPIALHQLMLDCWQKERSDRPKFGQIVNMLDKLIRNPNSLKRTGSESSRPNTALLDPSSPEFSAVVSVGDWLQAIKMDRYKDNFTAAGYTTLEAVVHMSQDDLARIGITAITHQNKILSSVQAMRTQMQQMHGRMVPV
A short description of assay [9]: growth suppression of PTEN-null colon cells, dose response, cell-based, HCT116 PTEN knockout (AID 1047).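 Also: HCT116 colon tumor cells with PTEN knocked out; cells exposed to compound for 60 hours before readout; potency for loss of cell viability measured by luminescence.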 It is filed as functional.
Assay [10] in a line: growth suppression of beta-catenin-knockout colon cells, dose response, cell-based, HCT116, human colon tumor (AID 1045).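 Also: HCT116 colon tumor cells with beta catenin knocked out; cells exposed to compound for 60 hours.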 It is filed as functional.
The target in the next assay is Cytochrome P450 3A4 (Homo sapiens, UniProt P08684). Conditions: Potency.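 Also: confirmatory qHTS run detecting inhibitors and substrates of CYP3A4.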
Cytochrome P450 3A4, sequence (P08684 whole entry): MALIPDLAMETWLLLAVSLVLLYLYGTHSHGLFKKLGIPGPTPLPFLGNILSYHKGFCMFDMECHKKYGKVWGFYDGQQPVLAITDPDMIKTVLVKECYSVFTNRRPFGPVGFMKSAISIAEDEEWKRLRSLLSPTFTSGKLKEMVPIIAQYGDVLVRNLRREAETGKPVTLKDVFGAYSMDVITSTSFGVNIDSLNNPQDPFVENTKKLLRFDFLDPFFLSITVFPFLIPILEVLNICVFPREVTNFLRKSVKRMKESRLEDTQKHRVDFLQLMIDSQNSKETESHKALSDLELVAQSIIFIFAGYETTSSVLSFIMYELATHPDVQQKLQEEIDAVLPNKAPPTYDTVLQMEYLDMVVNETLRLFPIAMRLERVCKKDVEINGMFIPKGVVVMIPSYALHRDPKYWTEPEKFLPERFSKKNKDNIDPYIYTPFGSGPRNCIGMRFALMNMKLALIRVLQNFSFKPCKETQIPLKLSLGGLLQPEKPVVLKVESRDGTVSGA
Assay [11] can be described thus: microbe, parasite or virus in culture. To be noted: Mycobacterium tuberculosis. Type of assay: functional.

Regarding `Cc1ccc(S(=O)(=O)CN=C(S)c2ccc3ccccc3c2)cc1`, the half-maximal effective concentration (EC50) (commonly the concentration needed to bring the measured effect to its halfway point) is > 150 µM (not active) in the assay on Streptococcus and 3.01 µM (active) in assay [2]. For the same compound, the half-inhibitory concentration (IC50) (in general, the concentration that gives 50% inhibition) in assay [1] was > 100 µM (active).
Take `CC(C)N(C)C(=O)c1cccc(NC(=O)c2ccncc2)c1OCCCN(C)C(=O)OC(C)(C)C`: the half-inhibitory concentration (IC50) in assay [3] was 10.2 µM (inconclusive).
Regarding `COc1ccc(/C=N/NC2=NC(=O)C(c3ccccc3)S2)c(OC)c1` (configuration not stated), the half-maximal inhibitory concentration (IC50) in assay [4] is > 100 µM (active).
For the compound `COCCNC(=O)/C(C#N)=C/c1c(N2CCN(c3ccc(OC)cc3)CC2)nc2c(C)cccn2c1=O`, the EC50 at Kallikrein-7 was > 69.5 µM (inactive).
For the compound `COc1cccc(Cl)c1NC(=O)N1CCc2c([nH]c3ccccc23)C1C(F)(F)F` (configuration not stated), the concentration at half-maximal activity (AC50) (usually the midpoint of the concentration-response curve, whichever way the signal moves) in assay [5] is 15 µM (active); in assay [6] it was 4.56 µM (active); in [7], 36.8 µM (active); in [8], 2.65 µM (active).
As for `CCCOc1ccc(-c2nn(-c3ccccc3)cc2/C=C2\SC(=S)N(C3CCS(=O)(=O)C3)C2=O)cc1` (configuration not stated), the IC50 on Ephrin type-A receptor 4 is 12 µM (active).
Turning to `O=C(Nc1cccc2c1CCCC2)c1cc([N+](=O)[O-])ccc1Cl`, the IC50 on Ephrin type-A receptor 4 is on record as > 100 µM (not active). The EC50 in assay [9] was 7.64 µM (active); in assay [10], 6.84 µM (active).
With `COC(=O)c1cccc(C#CC(NP(=O)(c2ccccc2)c2ccccc2)c2ccccc2)c1` (configuration not stated), the half-maximal activity concentration (AC50) at Cytochrome P450 3A4 was 12.6 µM (inconclusive). Also, the CC50 in [11] was > 40 µM (active). In addition, the IC50 in assay [1] was > 100 µM (active).
